Results on one compound are retold here after PMC5926957 (Japanese Journal of Cancer Research : Gann, 2002).

pKi: −log10 of the molar value.

In the experiment the target is P-glycoprotein (P-gp) (Homo sapiens, UniProt P08183). Nature of the experiment: calcein-AM efflux assay in L-MDR1 vs LLC-PK1 cells. It is filed as cell-based.
Chain of P-glycoprotein (P-gp) (P08183 whole entry): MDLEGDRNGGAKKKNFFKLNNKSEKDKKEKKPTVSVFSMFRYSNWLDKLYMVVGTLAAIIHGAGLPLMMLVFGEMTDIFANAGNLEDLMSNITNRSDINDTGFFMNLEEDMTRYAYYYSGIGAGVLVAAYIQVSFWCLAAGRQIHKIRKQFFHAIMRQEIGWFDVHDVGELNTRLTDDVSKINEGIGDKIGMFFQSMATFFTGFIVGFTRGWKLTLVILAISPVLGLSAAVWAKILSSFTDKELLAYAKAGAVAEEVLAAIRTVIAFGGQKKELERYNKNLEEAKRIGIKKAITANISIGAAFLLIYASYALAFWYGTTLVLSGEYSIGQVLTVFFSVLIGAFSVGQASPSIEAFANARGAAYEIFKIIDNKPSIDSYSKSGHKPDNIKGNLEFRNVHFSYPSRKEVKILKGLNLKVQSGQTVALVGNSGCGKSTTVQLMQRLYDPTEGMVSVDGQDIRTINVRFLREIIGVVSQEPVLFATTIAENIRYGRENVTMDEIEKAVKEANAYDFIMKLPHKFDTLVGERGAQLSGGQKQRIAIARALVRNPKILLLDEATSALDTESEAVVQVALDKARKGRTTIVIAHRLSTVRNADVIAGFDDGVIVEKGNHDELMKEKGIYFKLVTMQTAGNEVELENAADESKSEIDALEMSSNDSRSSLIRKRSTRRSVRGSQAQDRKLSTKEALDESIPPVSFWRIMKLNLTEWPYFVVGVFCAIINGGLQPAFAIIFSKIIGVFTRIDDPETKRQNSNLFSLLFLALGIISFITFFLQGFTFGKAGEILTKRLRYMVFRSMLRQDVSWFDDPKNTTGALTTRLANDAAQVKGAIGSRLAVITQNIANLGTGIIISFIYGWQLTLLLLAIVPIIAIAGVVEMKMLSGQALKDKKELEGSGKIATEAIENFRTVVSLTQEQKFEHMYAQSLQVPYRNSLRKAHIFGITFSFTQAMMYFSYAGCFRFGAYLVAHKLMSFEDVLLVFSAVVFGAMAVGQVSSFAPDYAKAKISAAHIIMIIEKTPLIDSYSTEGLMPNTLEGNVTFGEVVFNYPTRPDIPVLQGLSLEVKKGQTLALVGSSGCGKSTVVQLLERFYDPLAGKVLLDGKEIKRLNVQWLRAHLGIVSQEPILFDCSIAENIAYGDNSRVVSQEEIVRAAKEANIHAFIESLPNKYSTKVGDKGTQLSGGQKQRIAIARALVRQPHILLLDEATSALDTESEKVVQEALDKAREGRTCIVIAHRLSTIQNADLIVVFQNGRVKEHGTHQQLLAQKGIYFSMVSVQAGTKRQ

Consider `CC(C)C[C@H]1C(=O)N2CCC[C@H]2[C@]2(O)O[C@](NC(=O)[C@@H]3C=C4c5cccc6[nH]c(Br)c(c56)C[C@H]4N(C)C3)(C(C)C)C(=O)N12` [bromocriptine], for which the pKi – broadly, the negative decadic logarithm of the Ki, by convention in mol/L – was 5.19.
